Source: patent US12708629B2, “Methods and compositions for reducing parathyroid levels” (EIRGEN PHARMA LTD., priority 2010, dated 2026)

Assays:
[1] = Single-dose pharmacokinetics of oral 25-hydroxyvitamin D3 formulations and IV injection in miniature swine (Example 1); assay type: in vivo, Yucatan miniature swine
Procedure: Nine oral vitamin D formulations were prepared according to Table 2 below by homogeneously mixing the identified components in the amounts shown and filling the mixtures into hard gelatin capsules. Formulation 9 is an immediate-release formulation according to the prior art, wherein MIGLYOL 812N is the trade name for caprylic/capric triglycerides, available from CONDEA Chemie GmbH of Cranford, New Jersey, USA. […] Each group included five animals.
Blood was collected pre-dose, and at 0.5, 1, 2, 4, 6, 8, 12, 24, 48, 96, 168, 240, 336, 432, 504, 576, and 672 hours post dosing. Serum 25-hydroxyvitamin D3 levels were assayed by Liquid Chromatography/Mass Spectrometry/Mass Spectrometry (LC MS/MS).

[2] = Expected rise of serum 25-hydroxyvitamin D3 in a human, stated after the mini-pig result; assay type: in vivo; conditions: single dose of 50 μg to a human (about 60 kg)
[3] = clinical; conditions: human, in vivo, 450 ug
Description: (§1) The modified release dosage formulation was the same as formulation 7 in Table 2 herein, with the following exceptions: (1) a vegetable-based capsule was used in place of a gelatin capsule; (2) hard paraffin content was reduced to 20%; and (3) liquid paraffin (light mineral oil) content was increased to 30%.
(§2) The bioavailability of the modified release dosage form was about 10% measured over the duration of the study (42 days).

[4] = tested on: iPTH; assay: Example 8: iPTH in Stage 3 or 4 CKD subjects; assay type: in vivo, human; conditions: single dose: IV 448 μg or 450 μg MR
Description: as §1, §2

[5] = Yucatan, minipig, serum, iv, 250 ug

AUC(0-inf) [1, 5]: 16600 ng·h/mL
Cmax [1, 5]: 155 ng/mL
Tmax [1, 5]: 1.5 h
AUC(0-t) ([1]; Yucatan, minipig, serum, iv, 250 ug, read-out: AUC (0-672 hr)): 15000 ng·h/mL
half-life ([1]; Yucatan, minipig, serum, iv, 250 ug, read-out: T½ (converted)): 132 h
BA ([1]; single 250 μg dose, Group 10 IV injection = 100.0): 100.0%
expected increase of serum 25-hydroxyvitamin D3 [2]: about 1.4 ng/ml
Cmax [3]: 134 ± 19 ng/mL
half-life [3]: 1780 h
tmax, AVG [3]: 0.49 h
Tmax ([3]; AVG): 0.5 ± 0.6 h
Tmax ([3]; Median): 0.25 h
Compound: C=C1CC[C@H](O)C/C1=C/C=C1\CCC[C@]2(C)[C@@H]([C@H](C)CCCC(C)(C)O)CC[C@@H]12 [25-hydroxyvitamin D3]
effect on mean iPTH [4]: minimal to no effect
effect on mean iPTH ([4]; listed as IV calcifediol): no clinically meaningful effect
